{
  "source": "ChEMBL document CHEMBL1914410",
  "about": "“Discovery of a series of potent and selective human H4 antagonists using ligand efficiency and libraries to explore structure-activity relationship (SAR)” (Bioorg Med Chem Lett, 2011)",
  "key": {"Histamine H3 receptor [1]": {"biological_target": "T1, Histamine H3 receptor (Homo sapiens, UniProt Q9Y5N1)", "T1 sequence (Q9Y5N1 whole entry)": "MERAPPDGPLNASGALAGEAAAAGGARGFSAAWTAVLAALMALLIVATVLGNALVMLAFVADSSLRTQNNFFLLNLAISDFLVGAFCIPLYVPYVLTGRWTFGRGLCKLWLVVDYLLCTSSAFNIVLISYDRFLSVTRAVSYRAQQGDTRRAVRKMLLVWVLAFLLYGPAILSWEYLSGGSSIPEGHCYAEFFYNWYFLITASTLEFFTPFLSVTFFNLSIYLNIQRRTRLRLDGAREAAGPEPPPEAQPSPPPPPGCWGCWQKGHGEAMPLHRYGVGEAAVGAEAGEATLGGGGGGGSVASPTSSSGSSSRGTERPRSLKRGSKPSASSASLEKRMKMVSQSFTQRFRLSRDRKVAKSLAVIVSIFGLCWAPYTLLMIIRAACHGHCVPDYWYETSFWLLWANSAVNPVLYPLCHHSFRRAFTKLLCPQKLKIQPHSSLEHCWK", "test": "Antagonist activity at histamine H3 receptor", "format": "functional"}, "Histamine H4 receptor [2]": {"biological_target": "T2, Histamine H4 receptor (Homo sapiens, UniProt Q9H3N8)", "T2 sequence (Q9H3N8 whole entry)": "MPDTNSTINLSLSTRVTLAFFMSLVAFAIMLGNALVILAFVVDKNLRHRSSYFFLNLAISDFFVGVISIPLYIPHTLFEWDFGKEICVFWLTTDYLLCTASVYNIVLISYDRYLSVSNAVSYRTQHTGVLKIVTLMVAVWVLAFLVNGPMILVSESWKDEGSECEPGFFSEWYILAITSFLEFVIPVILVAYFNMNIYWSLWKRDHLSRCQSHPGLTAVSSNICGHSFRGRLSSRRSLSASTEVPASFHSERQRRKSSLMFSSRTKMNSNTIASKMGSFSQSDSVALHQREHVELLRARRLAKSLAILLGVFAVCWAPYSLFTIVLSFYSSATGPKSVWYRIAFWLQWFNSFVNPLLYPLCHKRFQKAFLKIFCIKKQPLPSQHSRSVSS", "test": "Antagonist activity at human histamine H4 receptor at 15 uM by functional assay", "parameters": "scale not given: the % may be the effect or the level left"}, "Histamine H4 receptor [3]": {"biological_target": "T2, Histamine H4 receptor", "test": "Displacement of [3H]histamine from human histamine H4 receptor expressed in CHO cells after 90 mins by scintillation counting technique", "format": "cell-based"}, "Histamine H4 receptor [4]": {"biological_target": "T2, Histamine H4 receptor", "test": "Antagonist activity at human histamine H4 receptor by functional assay"}, "[5]": {"test": "Distribution coefficient, log D of the compound at pH 7.4", "format": "physicochemical", "conditions": "octanol/water"}, "Histamine H3 receptor [6]": {"biological_target": "T1, Histamine H3 receptor", "test": "Binding affinity to human histamine H3 receptor"}, "Liver microsomes": {"test_system": "Liver microsomes", "test": "Intrinsic clearance in rat liver microsomes", "format": "ADME, Microsome"}, "Histamine H2 receptor": {"biological_target": "Histamine H2 receptor (Homo sapiens, UniProt P25021)", "sequence (P25021 whole entry)": "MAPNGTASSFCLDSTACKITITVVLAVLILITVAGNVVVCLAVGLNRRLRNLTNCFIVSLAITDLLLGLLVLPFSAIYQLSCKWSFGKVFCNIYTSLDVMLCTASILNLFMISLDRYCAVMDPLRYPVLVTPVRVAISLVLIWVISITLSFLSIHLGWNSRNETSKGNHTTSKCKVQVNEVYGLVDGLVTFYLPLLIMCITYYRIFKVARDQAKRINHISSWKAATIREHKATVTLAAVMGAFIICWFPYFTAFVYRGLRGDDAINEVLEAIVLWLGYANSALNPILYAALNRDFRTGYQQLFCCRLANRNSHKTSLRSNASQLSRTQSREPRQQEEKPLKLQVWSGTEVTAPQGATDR", "test": "Antagonist activity at histamine H2 receptor", "format": "functional"}, "Histamine H1 receptor": {"biological_target": "Histamine H1 receptor (Homo sapiens, UniProt P35367)", "sequence (P35367 whole entry)": "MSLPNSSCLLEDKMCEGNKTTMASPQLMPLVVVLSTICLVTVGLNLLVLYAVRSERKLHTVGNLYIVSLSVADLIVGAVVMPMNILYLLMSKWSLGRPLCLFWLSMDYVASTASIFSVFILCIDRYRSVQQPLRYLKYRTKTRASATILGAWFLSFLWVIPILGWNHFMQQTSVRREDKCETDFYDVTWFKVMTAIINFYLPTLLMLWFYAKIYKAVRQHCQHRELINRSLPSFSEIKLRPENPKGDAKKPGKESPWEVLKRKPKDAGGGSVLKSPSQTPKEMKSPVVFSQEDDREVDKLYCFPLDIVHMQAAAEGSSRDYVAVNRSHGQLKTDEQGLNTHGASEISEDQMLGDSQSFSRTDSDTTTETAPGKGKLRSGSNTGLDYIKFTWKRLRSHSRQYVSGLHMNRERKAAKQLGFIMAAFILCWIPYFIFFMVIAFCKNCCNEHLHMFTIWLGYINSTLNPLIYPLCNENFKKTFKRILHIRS", "test": "Antagonist activity at histamine H1 receptor", "format": "functional"}, "Histamine H3 receptor [7]": {"biological_target": "T1, Histamine H3 receptor", "test": "Binding affinity to histamine H3 receptor"}, "[8]": {"test": "Metabolic stability in human liver microsomes", "format": "ADME, Microsome", "conditions": "read-out: Stability"}, "[9]": {"test": "Metabolic stability in rat liver microsomes", "format": "ADME, Microsome", "conditions": "read-out: Stability"}},
  "data": [
    {"smiles": "COc1cccc(C(O)(COc2ccccc2C)CN2CCN(C)CC2)c1", "note": "(stereo not given)", "values": [
      {"measurement": "Ki", "setting": "Histamine H3 receptor [1]", "result": 2500, "unit": "nM"},
      {"measurement": "Activity", "setting": "Histamine H4 receptor [2]", "result": 60, "unit": "%"},
      {"measurement": "Ki", "setting": "Histamine H4 receptor [3]", "result": 3240, "unit": "nM"},
      {"measurement": "Ki", "setting": "Histamine H4 receptor [4]", "result": "> 2000", "unit": "nM"}
    ]},
    {"smiles": "COc1ccccc1Cn1ccc(NCCc2cnc[nH]2)nc1=O", "values": [
      {"measurement": "Activity", "setting": "Histamine H4 receptor [2]", "result": 65, "unit": "%"},
      {"measurement": "Ki", "setting": "Histamine H4 receptor [3]", "result": 1600, "unit": "nM"},
      {"measurement": "Ki", "setting": "Histamine H4 receptor [4]", "result": "> 2000", "unit": "nM"}
    ]},
    {"smiles": "CN1CCN(c2cc(N3[C@@H]4CCC[C@@H]3C4)ncn2)CC1", "values": [
      {"measurement": "Ki", "setting": "Histamine H4 receptor [3]", "result": 860, "unit": "nM"}
    ]},
    {"smiles": "CN1CC[C@H](Nc2cc(NCCC(C)(C)C)ncn2)C1", "values": [
      {"measurement": "Ki", "setting": "Histamine H4 receptor [3]", "result": 593, "unit": "nM"}
    ]},
    {"smiles": "CN1CCCN(c2cc(NCC(C)(C)C)ncn2)CC1", "values": [
      {"measurement": "logD", "setting": "[5]", "result": 0.96}
    ]},
    {"smiles": "CN1CCN(c2cc(NCc3ccccc3)ncn2)CC1", "values": [
      {"measurement": "Ki", "setting": "Histamine H4 receptor [3]", "result": 207, "unit": "nM"}
    ]},
    {"smiles": "CN1CCN(c2cc(C(=O)NCc3cccc(C(F)(F)F)c3)ncn2)CC1", "values": [
      {"measurement": "Activity", "setting": "Histamine H4 receptor [2]", "result": 57, "unit": "%"},
      {"measurement": "Ki", "setting": "Histamine H4 receptor [3]", "result": 34900, "unit": "nM"}
    ]},
    {"smiles": "CN(C)[C@@H]1CCN(c2cc(NCC(C)(C)C)ncn2)C1", "values": [
      {"measurement": "logD", "setting": "[5]", "result": 1.09},
      {"measurement": "Ki", "setting": "Histamine H3 receptor [6]", "result": 54, "unit": "nM"}
    ]},
    {"smiles": "CC(C)(C)CCNc1cc(N[C@H]2CCN(Cc3cccc(F)c3O)C2)ncn1", "values": [
      {"measurement": "Ki", "setting": "Histamine H4 receptor [3]; cho", "result": 20000, "unit": "nM"}
    ]},
    {"smiles": "COCc1ccc(CN2CC[C@H](Nc3cc(NCCC(C)(C)C)ncn3)C2)o1", "values": [
      {"measurement": "Ki", "setting": "Histamine H4 receptor [3]; cho", "result": 20000, "unit": "nM"}
    ]},
    {"smiles": "CN1CCN(c2cc(NCC(C)(C)C)ncn2)CC1", "values": [
      {"measurement": "logD", "setting": "[5]", "result": 1.75},
      {"measurement": "Ki", "setting": "Histamine H3 receptor [6]", "result": 825, "unit": "nM"}
    ]},
    {"smiles": "CN1CCN(c2cc(NC3Cc4ccccc4C3)ncn2)CC1", "values": [
      {"measurement": "Ki", "setting": "Histamine H4 receptor [3]", "result": 212, "unit": "nM"}
    ]},
    {"smiles": "CC(C)(C)CCNc1cc(NC2CCN(Cc3ccc(CO)o3)C2)ncn1", "note": "(stereo not given)", "values": [
      {"measurement": "Activity", "setting": "Histamine H4 receptor [2]", "result": 73, "unit": "%"},
      {"measurement": "Ki", "setting": "Histamine H4 receptor [3]", "result": 2110, "unit": "nM"}
    ]},
    {"smiles": "CC(C)(C)CCNc1cc(N2CCN(C3CCCCC3)CC2)ncn1", "values": [
      {"measurement": "logD", "setting": "[5]", "result": 3.84},
      {"measurement": "Ki", "setting": "Histamine H4 receptor [3]", "result": 601, "unit": "nM"}
    ]},
    {"smiles": "Cc1ccc(C#N)c(N2CC3CN(C)CC3C2)n1", "note": "(stereo not given)", "values": [
      {"measurement": "logD", "setting": "[5]", "result": -0.86},
      {"measurement": "Ki", "setting": "Histamine H4 receptor [3]", "result": 930, "unit": "nM"}
    ]},
    {"smiles": "CN1CCN(c2cnc3ccccc3n2)CC1", "values": [
      {"measurement": "logD", "setting": "[5]", "result": 1.76},
      {"measurement": "Ki", "setting": "Histamine H4 receptor [3]", "result": 1060, "unit": "nM"}
    ]},
    {"smiles": "CC(C)(C)CCNc1cc(N[C@@H]2CCNC2)ncn1", "values": [
      {"measurement": "Ki", "setting": "Histamine H3 receptor [1]", "result": 13600, "unit": "nM"}
    ]},
    {"smiles": "CN(C)CCNc1cc(NCC2CC2)ncn1", "values": [
      {"measurement": "CL", "setting": "Liver microsomes", "result": 143, "unit": "µL/min"}
    ]},
    {"smiles": "CN1CCN(C(=O)c2nc3cc(Cl)ccc3[nH]2)CC1", "values": [
      {"measurement": "Ki", "setting": "Histamine H4 receptor [3]", "result": 47.7, "unit": "nM"},
      {"measurement": "Ki", "setting": "Histamine H4 receptor [4]", "result": 39.6, "unit": "nM"}
    ]},
    {"smiles": "CC(C)(C)CCNc1cc(N2CCNCC2)ncn1", "values": [
      {"measurement": "logD", "setting": "[5]", "result": 1.4}
    ]},
    {"smiles": "CC(C)(C)CCNc1cc(N[C@H]2CCNC2)ncn1", "values": [
      {"measurement": "Ki", "setting": "Histamine H2 receptor", "result": 8820, "unit": "nM"},
      {"measurement": "logD", "setting": "[5]", "result": 0.6},
      {"measurement": "Ki", "setting": "Histamine H1 receptor", "result": "> 40000", "unit": "nM"},
      {"measurement": "Ki", "setting": "Histamine H3 receptor [1]", "result": 8220, "unit": "nM"},
      {"measurement": "Ki", "setting": "Histamine H4 receptor [4]", "result": 572, "unit": "nM"}
    ]},
    {"smiles": "CN1CCN(c2cc(NCCC(C)(C)C)ncn2)CC1", "values": [
      {"measurement": "Ki", "setting": "Histamine H2 receptor", "result": 3560, "unit": "nM"},
      {"measurement": "logD", "setting": "[5]", "result": 2.6},
      {"measurement": "Ki", "setting": "Histamine H1 receptor", "result": "> 10000", "unit": "nM"},
      {"measurement": "Ki", "setting": "Histamine H3 receptor [7]", "result": 646, "unit": "nM"},
      {"measurement": "microsomal CLint", "setting": "[8]", "result": 16, "unit": "µL/min/mg"},
      {"measurement": "microsomal CLint", "setting": "[9]", "result": 147, "unit": "µL/min/mg"},
      {"measurement": "Ki", "setting": "Histamine H4 receptor [4]", "result": 37, "unit": "nM"}
    ]}
  ]
}
